Test results as given in PMC10013768, “The efficacy of anti‐proteolytic peptide R7I in intestinal inflammation, function, microbiota, and metabolites by multi‐omics analysis in murine bacterial enteritis” (Bioengineering & Translational Medicine, 2022).
Converted amounts (≈) assume the structure as drawn. Ends that are not written are not given here.

Tests used:
Escherichia coli 25922 = assay: MIC against E. coli 25922 after incubation of the peptide with mouse serum, gastric juice, small intestinal juice or PBS; assay type: cell-based; conditions: for MIC after incubation with gastric juice (GAJ), 1h: mouse gastric juice (stomach tissue + PBS pH 2.0, w/w 1:1, supernatant) mixed with peptide v/v 1:1, peptide 1.28 mM, MIC = lowest concentration killing >95% of cells; for MIC after incubation with serum, 1h / MIC after incubation with serum, 4h / MIC after incubation with serum, 8h: mouse serum mixed with peptide v/v 4:1, 1.28 mM; for Effect of the serum environment on antimicrobial activity: mouse serum, 1-8 h incubation, read-out MIC vs E. coli 25922; for MIC after incubation with small intestinal juice (SIJ), 1h: mouse small intestine contents + PBS pH 7.0 (w/w 1:9, supernatant) mixed with peptide v/v 1:1, 1.28 mM; for MIC after incubation in PBS2.0, 1h / MIC after incubation in PBS2.0, 4h / MIC after incubation in PBS2.0, 8h: phosphate-buffered saline pH 2.0, 37°C; for MIC after incubation in PBS7.0, 1h / MIC after incubation in PBS7.0, 4h / MIC after incubation in PBS7.0, 8h: phosphate-buffered saline pH 7.0, 37°C
Experimental: FIGURE 2 (a) Schematic diagram of the experimental scheme. Red and green arrows indicate the number of oral administrations and corresponding time points, respectively. (b) The experimental group design. (c) R7I MIC changes after incubation with serum, gastric juice, and small intestine fluid against Escherichia coli 25922. Minimum inhibitory concentrations (MICs, μM) were determined as the lowest peptide concentrations that killed greater than 95% of the bacterial cells. A value >64 indicates no detectable antibacterial activity at 64 μM. GAJ, gastric juice; SIJ, small intestinal juice; PBS2.0 and PBS7.0, phosphate‐buffered saline (pH = 2.0 or pH = 7.0); E. coli, Escherichia coli 25922 TEXT PRINTED IN THE PICTURE: (c) R7I + GAJ + E. coli: 1h: 2; 4h: 2; 8h: 2 | (c) R7I + SIJ + E. coli: 1h: 2; 4h: 4; 8h: 4 | (c) R7I + Serum + E. coli: 1h: 2; 4h: 2; 8h: 2 | (c) Melittin + GAJ + E. coli: 1h: >64; 4h: >64; 8h: >64 | (c) Melittin + SIJ + E. coli: 1h: >64; 4h: >64; 8h: >64 | (c) Melittin + Serum + E. coli: 1h: 4; 4h: 8; 8h: 8 | (c) R7I + PBS2.0 + E. coli: 1h: 2; 4h: 2; 8h: 2 | (c) R7I + PBS7.0 + E. coli: 1h: 2; 4h: 2; 8h: 2 | (c) Melittin + PBS2.0 + E. coli: 1h: 2; 4h: 2; 8h: 2 | (c) Melittin + PBS7.0 + E. coli: 1h: 2; 4h: 2; 8h: 2
The C57BL/6 male mice aged 6 weeks were provided by Liaoning Changsheng Biotechnology Co., Ltd., China and euthanized at 10:00 am. The serum was collected and mixed with R7I (v/v = 4:1) to give a final peptide concentration of 1.28 mM. The stomach (cut in half) and the contents of the entire small intestine of the mice were collected and placed in a sterile eppendorf tube. Sterile PBS was added to gastric tissue (w/w = 1:1, pH = 2.0) and small intestine contents (w/w = 1:9, pH = 7.0), and mixed thoroughly by shaking. The mixture was centrifuged to obtain the supernatant as gastric juice and small intestine juice. R7I was dissolved with the corresponding pH PBS. The prepared gastric and small intestine fluids were then mixed separately with R7I (v/v = 1:1) to give a final peptide concentration of 1.28 mM. Melittin was used here as a control. The peptide mixture was incubated in a 37°C incubator for 1, 4 and 8 h. Finally, the minimum inhibitory concentrations (MICs) test was performed to verify peptide activity with Escherichia coli 25922.[18]

[1] = earlier research; cited from earlier work
Source text: Importantly, compared with other anti‐proteolytic peptides containing unnatural amino acids, R7I was completely composed of natural amino acids and had dramatic resistance to a high concentration of protease hyd ...

[2] = test system: pepsin, trypsin, chymotrypsin, and proteinase K; conditions: in vitro; cited from earlier work
[3] = test system: E. coli ATCC 25922 bacterial enteritis model in mice; assay: Bacterial enteritis model: serum D-lactic acid, diamine oxidase, SIgA (ELISA); assay type: in vivo, C57BL/6 male mice; conditions: n = 6
Experimental: C57BL/6 male mice that were 6 weeks old were provided by Liaoning Changsheng Biotechnology Co., Ltd., China. All mice (20.00 ± 2.00 g, 6 weeks old) were randomly divided into 6 groups (n = 12), and they were fed adaptively for 3 days. During the whole experiment, mice can get clean water and a laboratory standard diet ad libitum, under controlled environmental conditions (40%–60% relative humidity, 25 ± 2°C temperature; lighting cycle, 12 h/d). The standard lab diet contained 18% crude protein, 4% crude fat, 5% crude fiber, 8% ash, and 10% moisture.
(§1) The mice were divided into six groups randomly: (1) the control group (E. coli + normal saline); the administration group (E. coli + R7I) is set to three concentration gradients: (2) 20 mg/kg, (3) 30 mg/kg, and (4) 40 mg/kg of body weight; (5) the antibiotic group (E. coli + colistin sulfate), 20 mg/kg of body weight; and (6) the blank group with only normal saline (Figure 2b).
Based on the results of the pre‐experiment, we determined the appropriate concentration of the bacteria. The strain E. coli ATCC 25922 frozen at −20°C was incubated overnight in LB medium (37°C, 220r). The bacterial broth was transferred to a new LB medium at a ratio of 1:100 for 3–5 h to reach the logarithmic growth period. The bacterial precipitate was centrifuged and washed three times with saline to adjust the colony count to 2.0 × 10^9 CFU/ml.
(§2) The blank group was gavaged with 200 μl of saline, and all other groups were gavaged twice with E. coli ATCC 25922 (200 μl) once a day (d1‐2). R7I at different concentrations and colistin sulfate were given twice (12 h intervals) on the d3 and once on d4‐5 by oral administration. Correspondingly, an equal amount of saline was given to the blank and control groups in the same way. On day 6, all mice were euthanized by cervical dislocation under full anesthesia with isoflurane.
To detect the content of diamine oxidase (DAO), D‐lactic acid, and secretory immunoglobulin A (SlgA) in serum, using mouse ELISA kit instruction (Alphabio, Tianjin, China).

[4] = test system: E. coli ATCC 25922 bacterial enteritis model in mice; assay: Bacterial enteritis model: serum biochemical indices; assay type: in vivo, C57BL/6 male mice; conditions: other doses of R7I (30, 40 mg/kg) and colistin sulfate 20 mg/kg, oral
Experimental: as §1, §2
Serum biochemical indices of alanine aminotransferase (ALT), aspartate aminotransferase (AST), alkaline phosphatase (ALP), total bilirubin (TBIL), cholinesterase (CHE), creatinine (CREA), creatine kinase (CK), urea nitrogen (BUN), lactate dehydrogenase (LDH), total protein (TP), albumin (ALB), and globulin (GLB) were measured by the automatic biochemical analyzer (Roche, Cobus‐Mira‐Plus, Roche Diagnostic System Inc., Basel, Switzerland).

[5] = test system: E. coli ATCC 25922 bacterial enteritis model in mice; assay: Bacterial enteritis model: antioxidant function of the liver; assay type: in vivo, C57BL/6 male mice; conditions: oral R7I (20, 30, 40 mg/kg) or colistin sulfate 20 mg/kg; vs control group; n = 6
Experimental: as §1, §2
Total antioxidant capacity (T‐AOC), superoxide dismutase (SOD), glutathione peroxidase (GSH‐Px), malondialdehyde (MDA), and catalase (CAT) enzyme activities in the liver were determined using commercially available kits (Nanjing Jiancheng Bioengineering Institute, Nanjing, China) according to the manufacturer's instructions.

[6] = mouse gastric juice (PBS pH 2.0, w/w 1:1) mixed with peptide v/v 1:1, 1.28 mM, 37°C, 4 h, then MIC vs E. coli 25922
[7] = 37°C, then MIC vs E. coli 25922
[8] = 37°C, 4 h, then MIC vs E. coli 25922
[9] = 37°C, 8 h, then MIC vs E. coli 25922
[10] = mouse small intestine contents + PBS pH 7.0 (w/w 1:9) mixed with peptide v/v 1:1, 1.28 mM, 37°C, 8 h, then MIC vs E. coli 25922
[11] = oral R7I 20, 30, 40 mg/kg or colistin sulfate 20 mg/kg, vs control group, p < 0.05 in most treatment groups, best in 20 mg/kg R7I

CC[C@H](C)[C@H](NC(=O)CN)C(=O)NCC(=O)N[C@@H](C)C(=O)N[C@H](C(=O)N[C@@H](CC(C)C)C(=O)N[C@@H](CCCCN)C(=O)N[C@H](C(=O)N[C@@H](CC(C)C)C(=O)N[C@H](C(=O)N[C@H](C(=O)NCC(=O)N[C@@H](CC(C)C)C(=O)N1CCC[C@H]1C(=O)N[C@@H](C)C(=O)N[C@@H](CC(C)C)C(=O)N[C@H](C(=O)N[C@@H](CO)C(=O)N[C@@H](Cc1c[nH]c2ccccc12)C(=O)N[C@H](C(=O)N[C@@H](CCCCN)C(=O)N[C@@H](CCCNC(=N)N)C(=O)N[C@@H](CCCCN)C(=O)N[C@@H](CCCNC(=N)N)C(=O)N[C@@H](CCC(N)=O)C(=O)N[C@@H](CCC(N)=O)C(N)=O)[C@@H](C)CC)[C@@H](C)CC)[C@@H](C)O)[C@@H](C)O)C(C)C)C(C)C [Melittin]
MIC after incubation with gastric juice (GAJ), 4h (Escherichia coli 25922; [6]): > 64 µM | MIC after incubation with gastric juice (GAJ), 8h (Escherichia coli 25922; mouse gastric juice (PBS pH 2.0, w/w 1:1) mixed with peptide v/v 1:1, 1.28 mM, 37°C, 8 h, then MIC vs E. coli 25922): > 64 µM | MIC after incubation with gastric juice (GAJ), 1h (Escherichia coli 25922; [7]): > 64 µM | MIC after incubation with serum, 1h (Escherichia coli 25922; [7]): 4 µM | MIC after incubation with serum, 4h (Escherichia coli 25922; [8]): 8 µM | MIC after incubation with serum, 8h (Escherichia coli 25922; [9]): 8 µM | Effect of the serum environment on antimicrobial activity (Escherichia coli 25922; 37°C): slightly compromised | MIC after incubation with small intestinal juice (SIJ), 4h (Escherichia coli 25922; mouse small intestine contents + PBS pH 7.0 (w/w 1:9) mixed with peptide v/v 1:1, 1.28 mM, 37°C, 4 h, then MIC vs E. coli 25922): > 64 µM | MIC after incubation with small intestinal juice (SIJ), 8h (Escherichia coli 25922; [10]): > 64 µM | MIC after incubation with small intestinal juice (SIJ), 1h (Escherichia coli 25922; [7]): > 64 µM | MIC after incubation in PBS2.0, 1h (Escherichia coli 25922; then MIC vs E. coli 25922): 2 µM (≈ 5.69 µg/mL) | MIC after incubation in PBS2.0, 4h (Escherichia coli 25922; 4 h, then MIC vs E. coli 25922): 2 µM (≈ 5.69 µg/mL) | MIC after incubation in PBS2.0, 8h (Escherichia coli 25922; 8 h, then MIC vs E. coli 25922): 2 µM (≈ 5.69 µg/mL) | MIC after incubation in PBS7.0, 1h (Escherichia coli 25922; then MIC vs E. coli 25922): 2 µM (≈ 5.69 µg/mL) | MIC after incubation in PBS7.0, 4h (Escherichia coli 25922; 4 h, then MIC vs E. coli 25922): 2 µM (≈ 5.69 µg/mL) | MIC after incubation in PBS7.0, 8h (Escherichia coli 25922; 8 h, then MIC vs E. coli 25922): 2 µM (≈ 5.69 µg/mL) | Activity after incubation with small intestinal fluid for 1 min (Escherichia coli 25922; small intestinal fluid, 1 min, unused data): inactivated

IRPIIRPIIRPIIRPIIRPIIRPIIRPI-NH2 [R7I]
MIC after incubation with gastric juice (GAJ), 4h (Escherichia coli 25922; [6]): 2 µM | MIC after incubation with gastric juice (GAJ), 1h (Escherichia coli 25922; [7]): 2 µM | MIC after incubation with serum, 1h (Escherichia coli 25922; [7]): 2 µM | MIC after incubation with serum, 4h (Escherichia coli 25922; [8]): 2 µM | MIC after incubation with serum, 8h (Escherichia coli 25922; [9]): 2 µM | Effect of the serum environment on antimicrobial activity (Escherichia coli 25922; 37°C): no negative effect | MIC after incubation with small intestinal juice (SIJ), 8h (Escherichia coli 25922; [10]): 4 µM | MIC after incubation with small intestinal juice (SIJ), 1h (Escherichia coli 25922; [7]): 2 µM | MIC after incubation in PBS2.0, 1h (Escherichia coli 25922; then MIC vs E. coli 25922): 2 µM | MIC after incubation in PBS2.0, 4h (Escherichia coli 25922; 4 h, then MIC vs E. coli 25922): 2 µM | MIC after incubation in PBS2.0, 8h (Escherichia coli 25922; 8 h, then MIC vs E. coli 25922): 2 µM | MIC after incubation in PBS7.0, 1h (Escherichia coli 25922; then MIC vs E. coli 25922): 2 µM | MIC after incubation in PBS7.0, 4h (Escherichia coli 25922; 4 h, then MIC vs E. coli 25922): 2 µM | MIC after incubation in PBS7.0, 8h (Escherichia coli 25922; 8 h, then MIC vs E. coli 25922): 2 µM | Cytotoxicity [1]: low cytotoxicity | Resistance to pepsin, trypsin, chymotrypsin, and proteinase K [2]: excellent resistance

colistin sulfate
Serum D-lactic acid (DLA) level [3, 11]: significantly decreased | Serum diamine oxidase (DAO) level [3, 11]: significantly decreased | Serum secreted immunoglobulin A (SlgA) level vs control group ([3]; partial dose concentrations, oral): raise secreted immunoglobulin A (SlgA) levels compared to the control group, without statistical significance | Serum CREA level [4]: little effect (or even an increasing trend) | Serum LDH level [4]: little effect (or even an increasing trend) | Serum AST level ([4]; p < 0.05): decrease | Serum TBIL level ([4]; p < 0.05): decrease | Serum ALT level ([4]; p > 0.05): decrease | MDA levels in the liver [5]: significantly dropped
